Common to all, as to type: functional, cell-based
Experiment [1] concerns MCF7. Description: Antiproliferative activity against human MCF7 cells after 48 hrs by CCK8 assay. As to conditions: MCF7, 48 h.
Experiment [2] deals with COLO 320. Briefly: Antiproliferative activity against human COLO320 cells after 48 hrs by CCK8 assay. To be noted: COLO 320, 48 h.
Experiment [3] has as its system HepG2. Briefly: Antiproliferative activity against human HepG2 cells after 48 hrs by CCK8 assay. To be noted: HepG2, 48 h.
In experiment [4] the test system is MDA-MB-231. Briefly: Antiproliferative activity against human MDA-MB-231 cells after 48 hrs by CCK8 assay. To be noted: MDA-MB-231, 48 h.
Experiment [5] concerns K562. Briefly: Antiproliferative activity against human K562 cells after 48 hrs by CCK8 assay. To be noted: K562, 48 h.
Experiment [6] concerns HepG2. Description: Synergistic antiproliferative activity against human HepG2 cells at compound to DMXAA mol ratio of 1:1 after 48 hrs by CCK8 assay. As to conditions: HepG2, 48 h.
The subject of experiment [7] is K562. Briefly: Synergistic antiproliferative activity against human K562 cells at compound to DMXAA mol ratio of 1:1 after 48 hrs by CCK8 assay. As to conditions: K562, 48 h.
For experiment [8], the system named is MCF7. Briefly: Synergistic antiproliferative activity against human MCF7 cells at compound to DMXAA mol ratio of 1:1 after 48 hrs by CCK8 assay. To be noted: MCF7, 48 h.
For experiment [9], the system named is COLO 320. Briefly: Synergistic antiproliferative activity against human COLO320 cells at compound to DMXAA mol ratio of 1:1 after 48 hrs by CCK8 assay. To be noted: COLO 320, 48 h.
For experiment [10], the system named is MDA-MB-231. Description: Synergistic antiproliferative activity against human MDA-MB-231 cells at compound to DMXAA mol ratio of 1:1 after 48 hrs by CCK8 assay. To be noted: MDA-MB-231, 48 h.

`O=c1c2cc(O)ccc2oc2ccc(O)cc12` [EUXANTHONE]: the 50% inhibitory concentration (IC50) in experiment [1] is 128 µM; in experiment [2], 91.2 µM; in experiment [3], above 200 µM; in [4], 83.5 µM; in [5], 73.5 µM.
As to `O=c1c2cc(Cl)ccc2oc2cccc(O)c12`, the IC50 in experiment [1] was 53.1 µM; in [2], above 200 µM; in [3] it was above 200 µM; in experiment [4] it was 67.1 µM; in experiment [5] it was 62 µM.
As for `O=c1c2ccccc2oc2cc(O)cc(O)c12`, the IC50 came out at 11.2 µM in experiment [1]; 15.1 µM in experiment [2]; 11.7 µM in experiment [3]; 11.6 µM in experiment [4]; 45.1 µM in experiment [5].
The corresponding values for `O=c1c2c(O)cccc2oc2cc(O)cc(O)c12` are 31.6 µM, 36.4 µM, 55.3 µM, 33 µM and 60.1 µM.
With `O=c1c2ccccc2oc2ccc(Cl)cc12`, the concentration for half-maximal inhibition (IC50) in [1] was above 200 µM; in [2], 96.7 µM; in experiment [3] it was 62 µM; in [4], 69.4 µM; in experiment [5] it was above 200 µM.
As to `O=c1c2cc(O)ccc2oc2c(O)c(O)ccc12`, the half-maximal inhibitory concentration (IC50) in experiment [1] is above 200 µM; in experiment [2], 83.1 µM; in experiment [3] it was above 200 µM; in [4] it was 53.1 µM; in [5], 63.1 µM.
For `COc1ccc2c(=O)c3cc(O)ccc3oc2c1`, the concentration for half-maximal inhibition (IC50) in [1] is 23.4 µM; in experiment [2], 93.7 µM; in [3] it was above 200 µM; in [4], above 200 µM; in experiment [5], above 200 µM.
On to `COc1cc(OC)c2c(=O)c3ccc(O)cc3oc2c1`, for which the IC50 in [6] stood at 8.43 µM; in experiment [1], 11.2 µM; in experiment [2], 12.1 µM; in experiment [7] it was 26.2 µM; in [8], 14.1 µM; in experiment [9], 10.2 µM. In addition, the IC50 in experiment [3] is 8.7 µM; in [4], 9.6 µM; in [5], 29.1 µM; in experiment [10], 9.13 µM.
In the case of `O=c1c2cc(O)c(O)cc2oc2cc(O)cc(O)c12`, the IC50 in [1] is 43.2 µM; in [2], 23 µM; in experiment [3], 23.7 µM; in experiment [4], 23.6 µM; in experiment [5] it was 13.1 µM.
The like results for `COc1cc(OC)c2c(=O)c3cc(Cl)ccc3oc2c1` were, in that order, 21.4 µM, 11.5 µM, 31.2 µM, 11.4 µM and 19.4 µM.
The corresponding values for `O=c1c2ccc(O)cc2oc2cc(O)ccc12` are 91.3 µM, 37.7 µM, 61.7 µM, 31.7 µM and 31.2 µM.
For `O=c1c2cc(Cl)ccc2oc2cc(O)cc(O)c12`, the IC50 in experiment [6] came out at 4.22 µM; in [1] it was 1.2 µM; in experiment [2] it was 15.2 µM; in [7] it was 2.27 µM; in experiment [8], 1.15 µM; in experiment [9] it was 9.15 µM. The half-maximal inhibitory concentration (IC50) in [3] came out at 3.2 µM; in experiment [4], 5.2 µM; in experiment [5], 5.2 µM; in experiment [10], 3.1 µM.
Take `COc1cc(OC)c2c(=O)c3c(O)cccc3oc2c1`: the half-maximal inhibitory concentration (IC50) in experiment [1] turned out to be 21.1 µM; in [2] it was 25.9 µM; in experiment [3], 83.8 µM; in experiment [4], 25.9 µM; in experiment [5] it was 25.1 µM.
`O=c1c2ccc(O)cc2oc2cc(O)cc(O)c12`: the 50% inhibitory concentration (IC50) in [1] came out at 112 µM; in [2] it was 105 µM; in [3] it was 124 µM; in experiment [4] it was 55.6 µM; in [5], 55.6 µM.
On to `O=c1c2cccc(O)c2oc2cc(O)cc(O)c12`, for which the IC50 in [1] amounted to 23.4 µM; in experiment [2], 23.7 µM; in experiment [3], 33.8 µM; in experiment [4], 23.8 µM; in experiment [5], 28.5 µM.
With `O=c1c2cc(Br)ccc2oc2c(O)c(O)ccc12`, the IC50 in experiment [1] was found to be 104 µM; in experiment [2], 63.1 µM; in experiment [3] it was 63.8 µM; in experiment [4], 83.2 µM; in [5], 53.5 µM.
Turning to `O=c1c2ccccc2oc2cc(O)ccc12`, the IC50 is 121 µM in experiment [1]; above 200 µM in [2]; 85.3 µM in experiment [3]; 93 µM in experiment [4]; above 200 µM in experiment [5].
As for `O=c1c2ccc(O)cc2oc2c(O)cccc12`, the IC50 amounted to 41.9 µM in experiment [1]; 55.1 µM in experiment [2]; 23.7 µM in experiment [3]; 95.6 µM in [4]; 45.1 µM in experiment [5].
The corresponding values for `O=c1c2cc(O)c(O)cc2oc2cccc(O)c12` are 101 µM, 85.1 µM, 83.8 µM, 65.9 µM and 156 µM.
For the compound `O=c1c2ccccc2oc2c(O)c(O)ccc12` [3,4-DIHYDROXYXANTHONE], the concentration for half-maximal inhibition (IC50) in experiment [1] was 93.2 µM; in experiment [2] it was 73 µM; in experiment [3], 89.7 µM; in experiment [4], 124 µM; in experiment [5], 103 µM.
The corresponding values for `O=c1c2cc(O)ccc2oc2cc(O)c(O)cc12` are 28.1 µM, 93.2 µM, 63.3 µM, 23.5 µM and 73.5 µM.
The like results for `O=c1c2ccc(O)cc2oc2ccc(O)cc12` were, in that order, 92.4 µM, 31.5 µM, 52.2 µM, 32.4 µM and 88.9 µM.
The corresponding values for `O=c1c2cc(Cl)ccc2oc2c(O)cccc12` are 13 µM, 87.5 µM, 37.3 µM, 57.1 µM and 52.1 µM.
As to `O=c1c2ccc(O)cc2oc2c(O)c(O)ccc12`, the IC50 was 43.7 µM in experiment [1]; 77.3 µM in experiment [2]; 87.3 µM in experiment [3]; 87.3 µM in experiment [4]; 82.3 µM in [5].
`Cc1ccc2c(=O)c3cccc(O)c3oc2c1`: the concentration for half-maximal inhibition (IC50) in experiment [1] worked out at 83.4 µM; in experiment [2], 53.7 µM; in experiment [3] it was 93.8 µM; in experiment [4], 43.8 µM; in experiment [5], 93.5 µM.
The like results for `COc1cc(O)c2c(=O)c3c(OC)cccc3oc2c1` were, in that order, 34.3 µM, 35.7 µM, 32.7 µM, 34.7 µM and 34.2 µM.
As for `O=c1c2cc(O)ccc2oc2c(O)cccc12`, the half-maximal inhibitory concentration (IC50) in [1] amounted to 13.4 µM; in [2], 53.7 µM; in [3] it was 23.8 µM; in experiment [4], 43.8 µM; in [5], 43.5 µM.
For `Cc1ccc2c(=O)c3c(O)cc(O)cc3oc2c1`, the concentration for half-maximal inhibition (IC50) in experiment [6] turned out to be 8.75 µM; in experiment [1], 4.2 µM; in experiment [2], 27.1 µM; in [7] it was 4.65 µM; in experiment [8], 2.06 µM; in experiment [9], 22.8 µM. The concentration for half-maximal inhibition (IC50) in [3] was determined as 12.7 µM; in experiment [4] it was 8.6 µM; in experiment [5], 5.1 µM; in [10], 2.63 µM.
Consider `O=c1c2cc(Br)ccc2oc2c(O)cccc12`, for which the IC50 is 22.9 µM in [1]; 102 µM in [2]; 82.6 µM in [3]; 12.5 µM in [4]; above 200 µM in experiment [5].
The like results for `O=c1c2ccc(O)cc2oc2ccc(Cl)cc12` were, in that order, 41.2 µM, 55.1 µM, 43.7 µM, 45.6 µM and 45.1 µM.
With `O=c1c2cc(O)ccc2oc2cc(O)cc(O)c12`, the 50% inhibitory concentration (IC50) in experiment [1] is 31.2 µM; in [2], above 200 µM; in [3], above 200 µM; in experiment [4], 25.1 µM; in experiment [5], 106 µM.
For the compound `COc1cc(OC)c2c(=O)c3cc(Br)ccc3oc2c1`, the half-inhibitory concentration (IC50) in experiment [1] came to 43.1 µM; in experiment [2], 77.1 µM; in experiment [3] it was 87.1 µM; in experiment [4], 87.1 µM; in experiment [5] it was 52.1 µM.

For the origin of these results see ChEMBL document CHEMBL4033623, “Synthesis of xanthone derivatives and studies on the inhibition against cancer cells growth and synergistic combinations of them” (Eur J Med Chem, 2017).
